According to the supplement of paper PMC10307832:

Columns and labels:
Experiment in all cases: relative viability (nuclei count vs DMSO), 5 days (fraction); higher = more cells survive
RO-3306 + Pictilisib = compound: C1=CC2=C(C=CC(=C2)C=C3C(=O)NC(=NCC4=CC=CS4)S3)N=C1 [RO-3306] + CS(=O)(=O)N1CCN(Cc2cc3nc(-c4cccc5[nH]ncc45)nc(N4CCOCC4)c3s2)CC1 [Pictilisib] (partner 1 µM)
Summary of the method: (§1)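 Dosing by pin tool came one day after lung cancer cell lines were seeded in 1536-well plates, using either one drug or a fixed anchor-drug dose plus five library-drug doses (not always all listed) in √10 steps. After 5 days, nuclei were counted on 4× images. Relative viability is treated-well nuclei count divided by vehicle-well nuclei count, and values are medians of duplicate plates.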

RO-3306 + Linsitinib = compound: C1=CC2=C(C=CC(=C2)C=C3C(=O)NC(=NCC4=CC=CS4)S3)N=C1 [RO-3306] + C[C@]1(O)C[C@@H](c2nc(-c3ccc4ccc(-c5ccccc5)nc4c3)c3c(N)nccn32)C1 [Linsitinib] (partner 1 µM)
Summary of the method: as §1

[1] = compound: O=S(=O)(c1ccccc1)N(CC(F)(F)F)c1ccc(C(O)(C(F)(F)F)C(F)(F)F)cc1 + COc1cc2c(Oc3ccc(NC(=O)C4(C(=O)Nc5ccc(F)cc5)CC4)cc3F)ccnc2cc1OCCCN1CCOCC1 [Foretinib] (partner 0.25 µM)
Summary of the method: as §1

[2] = compound: O=S(=O)(c1ccccc1)N(CC(F)(F)F)c1ccc(C(O)(C(F)(F)F)C(F)(F)F)cc1 + COc1cccc2cc(-c3nc([C@H]4CC[C@H](C(=O)O)CC4)n4ncnc(N)c34)[nH]c12 [OSI-027] (partner 0.5 µM)
Summary of the method: as §1

[3] = compound: O=S(=O)(c1ccccc1)N(CC(F)(F)F)c1ccc(C(O)(C(F)(F)F)C(F)(F)F)cc1 + N=C(N)NC(=N)NCCc1ccccc1 [Phenformin] (partner 250 µM)
Summary of the method: as §1

| Cell Line | relative viability (RO-3306 + Pictilisib; first compound 0.01 µM) | relative viability (RO-3306 + Pictilisib; first compound 0.03162 µM) | relative viability (RO-3306 + Pictilisib; first compound 0.1 µM) | relative viability (RO-3306 + Pictilisib; first compound 0.3162 µM) | relative viability (RO-3306 + Pictilisib; first compound 1 µM) | relative viability (RO-3306 + Linsitinib; first compound 0.01 µM) | relative viability (RO-3306 + Linsitinib; first compound 0.03162 µM) | relative viability (RO-3306 + Linsitinib; first compound 0.1 µM) | relative viability (RO-3306 + Linsitinib; first compound 0.3162 µM) | relative viability (RO-3306 + Linsitinib; first compound 1 µM) | relative viability ([1]; first compound 0.8 µM) | relative viability ([1]; first compound 2.53 µM) | relative viability ([1]; first compound 8 µM) | relative viability ([2]; first compound 0.8 µM) | relative viability ([2]; first compound 2.53 µM) | relative viability ([2]; first compound 8 µM) | relative viability ([3]; first compound 0.8 µM) | relative viability ([3]; first compound 2.53 µM) | relative viability ([3]; first compound 8 µM) |
| --- | --- | --- | --- | --- | --- | --- | --- | --- | --- | --- | --- | --- | --- | --- | --- | --- | --- | --- | --- |
| NCI-H650 | 0.983 | 0.928 | 0.792 | 0.777 | 0.916 | 0.598 | 0.672 | 0.721 | 0.859 | 0.748 | 1.18 | 1.05 | 1.07 | 0.533 | 0.498 | 0.532 | 0.396 | 0.465 | 0.509 |
| NCI-H2228 | 0.456 | 0.37 | 0.363 | 0.381 | 0.269 | 0.963 | 0.529 | 0.678 | 0.655 | 0.617 | 0.65 | 0.657 | 0.839 | 0.542 | 0.348 | 0.521 | 0.319 | 0.286 | 0.293 |
| NCI-H661 | 0.41 | 0.377 | 0.356 | 0.392 | 0.363 | 0.569 | 0.458 | 0.581 | 0.586 | 0.728 | 1.03 | 0.961 | 0.844 | 0.737 | 0.788 | 0.738 | 0.272 | 0.333 | 0.3 |
| EMC-BAC-2 | 0.503 | 0.511 | 0.54 | 0.531 | 0.483 | 0.901 | 0.678 | 0.797 | 0.851 | 0.773 | 1.22 | 1.04 | 0.954 | 0.455 | 0.422 | 0.37 | 0.701 | 0.493 | 0.557 |
| NCI-H2085 | 0.388 | 0.467 | 0.467 | 0.492 | 0.479 | 0.882 | 0.755 | 0.884 | 0.866 | 0.84 | 0.886 | 0.725 | 0.885 | 0.98 | 0.718 | 0.769 | 0.805 | 0.695 | 0.741 |
| RERF-LC-KJ | 0.563 | 0.487 | 0.591 | 0.552 | 0.435 | 0.956 | 0.831 | 0.902 | 0.974 | 1 | 0.816 | 0.746 | 0.751 | 0.545 | 0.599 | 0.556 | 0.449 | 0.364 | 0.408 |
| NCI-H3122 | 0.602 | 0.56 | 0.624 | 0.611 | 0.525 | 1.1 | 0.995 | 1.02 | 0.981 | 1.03 | 0.891 | 0.792 | 1.05 | 1.18 | 0.807 | 1.14 | 0.345 | 0.334 | 0.338 |
| CAL-12T | 0.359 | – | – | 0.411 | 0.462 | 0.889 | 0.607 | 0.889 | 0.824 | 0.874 | 1.06 | 0.962 | 0.936 | 0.548 | 0.554 | 0.588 | 0.512 | 0.471 | 0.464 |
| NCI-H2023 | 0.168 | 0.241 | 0.225 | 0.219 | 0.167 | 0.607 | 0.566 | 0.637 | 0.798 | 0.585 | 0.957 | 0.73 | 0.66 | 0.41 | 0.279 | 0.286 | 0.472 | 0.369 | 0.311 |
